Experiments:
Type in all cases: biochemical
Human Calpain 2/NS1 = biological target: T1, Human Calpain 2/NS1 (Homo sapiens, UniProt P17655); test: Calpain inhibition continuous fluorescence (FRET) assay, Human Calpain 2/NS1; settings: Column B; read-out: Human Calpain 2/NS1 IC50
T1 sequence (P17655 1-700): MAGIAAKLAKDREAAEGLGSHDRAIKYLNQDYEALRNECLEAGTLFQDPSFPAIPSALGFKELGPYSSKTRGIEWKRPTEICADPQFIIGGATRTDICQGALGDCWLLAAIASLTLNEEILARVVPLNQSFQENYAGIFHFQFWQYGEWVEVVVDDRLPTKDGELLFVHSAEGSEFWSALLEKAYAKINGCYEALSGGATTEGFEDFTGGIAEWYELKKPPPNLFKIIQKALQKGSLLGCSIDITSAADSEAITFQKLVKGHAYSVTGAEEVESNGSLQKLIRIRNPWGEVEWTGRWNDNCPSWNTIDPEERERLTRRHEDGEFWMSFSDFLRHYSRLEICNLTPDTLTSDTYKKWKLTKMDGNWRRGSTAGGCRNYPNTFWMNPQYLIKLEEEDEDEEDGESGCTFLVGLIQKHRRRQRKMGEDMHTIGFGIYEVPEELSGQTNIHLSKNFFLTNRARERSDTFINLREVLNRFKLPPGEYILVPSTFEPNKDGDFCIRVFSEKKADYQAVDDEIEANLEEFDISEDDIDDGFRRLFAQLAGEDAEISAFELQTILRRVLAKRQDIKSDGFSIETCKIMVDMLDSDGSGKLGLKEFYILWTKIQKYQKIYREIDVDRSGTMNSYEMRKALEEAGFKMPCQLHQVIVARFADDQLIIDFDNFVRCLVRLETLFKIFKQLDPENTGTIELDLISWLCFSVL
T1 sequence (P04632 1-268 partner): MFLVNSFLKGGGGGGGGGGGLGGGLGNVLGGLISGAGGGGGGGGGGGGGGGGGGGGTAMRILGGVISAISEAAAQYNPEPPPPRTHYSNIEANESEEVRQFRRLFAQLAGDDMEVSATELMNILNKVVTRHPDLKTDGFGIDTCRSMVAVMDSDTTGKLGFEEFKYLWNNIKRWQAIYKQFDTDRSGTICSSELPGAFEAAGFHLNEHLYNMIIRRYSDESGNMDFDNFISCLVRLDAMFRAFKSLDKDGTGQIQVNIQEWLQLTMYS
In short: (§1)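 Calpain activity is measured kinetically with a quenched FRET peptide in 50 mM Tris pH 7.5, 100 mM NaCl, 1 mM DTT, with CaCl2 triggering activation. Rates over 1-5 min are plotted against log inhibitor to obtain IC50 by 4-parameter logistic fitting.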

Human Calpain 9/NS1 = biological target: T2, Human Calpain 9/NS1 (Homo sapiens, UniProt O14815); test: Calpain inhibition continuous fluorescence (FRET) assay, Human Calpain 9/NS1; settings: Column C; read-out: Human Calpain 9/NS1 IC50
T2 sequence (O14815 1-690): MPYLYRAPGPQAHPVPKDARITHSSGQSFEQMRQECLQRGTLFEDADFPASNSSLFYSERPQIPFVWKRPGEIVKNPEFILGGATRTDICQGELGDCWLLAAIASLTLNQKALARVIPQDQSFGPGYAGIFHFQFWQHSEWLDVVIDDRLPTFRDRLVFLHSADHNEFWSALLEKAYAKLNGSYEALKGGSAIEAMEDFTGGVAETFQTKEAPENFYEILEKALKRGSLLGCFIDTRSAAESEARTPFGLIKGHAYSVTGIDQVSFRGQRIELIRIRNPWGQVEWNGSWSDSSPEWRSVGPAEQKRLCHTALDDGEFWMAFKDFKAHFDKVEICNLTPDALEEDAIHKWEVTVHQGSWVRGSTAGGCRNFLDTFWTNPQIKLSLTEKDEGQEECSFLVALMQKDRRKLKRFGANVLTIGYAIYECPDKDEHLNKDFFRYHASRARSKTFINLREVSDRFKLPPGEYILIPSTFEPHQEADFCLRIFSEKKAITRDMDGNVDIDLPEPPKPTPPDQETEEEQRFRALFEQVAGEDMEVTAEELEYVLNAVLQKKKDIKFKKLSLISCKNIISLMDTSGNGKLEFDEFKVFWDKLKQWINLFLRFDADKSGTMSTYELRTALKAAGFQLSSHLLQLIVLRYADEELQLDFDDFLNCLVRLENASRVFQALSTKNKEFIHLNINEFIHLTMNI
T2 sequence (P04632 1-268 partner): T1 sequence (P04632 1-268 partner)
In short: as §1

Human Calpain 1/NS1 = biological target: T3, Human Calpain 1/NS1 (Homo sapiens, UniProt P07384); test: Calpain inhibition continuous fluorescence (FRET) assay, Human Calpain 1/NS1; settings: Column A; read-out: Human Calpain 1/NS1 IC50
T3 sequence (P07384 1-714): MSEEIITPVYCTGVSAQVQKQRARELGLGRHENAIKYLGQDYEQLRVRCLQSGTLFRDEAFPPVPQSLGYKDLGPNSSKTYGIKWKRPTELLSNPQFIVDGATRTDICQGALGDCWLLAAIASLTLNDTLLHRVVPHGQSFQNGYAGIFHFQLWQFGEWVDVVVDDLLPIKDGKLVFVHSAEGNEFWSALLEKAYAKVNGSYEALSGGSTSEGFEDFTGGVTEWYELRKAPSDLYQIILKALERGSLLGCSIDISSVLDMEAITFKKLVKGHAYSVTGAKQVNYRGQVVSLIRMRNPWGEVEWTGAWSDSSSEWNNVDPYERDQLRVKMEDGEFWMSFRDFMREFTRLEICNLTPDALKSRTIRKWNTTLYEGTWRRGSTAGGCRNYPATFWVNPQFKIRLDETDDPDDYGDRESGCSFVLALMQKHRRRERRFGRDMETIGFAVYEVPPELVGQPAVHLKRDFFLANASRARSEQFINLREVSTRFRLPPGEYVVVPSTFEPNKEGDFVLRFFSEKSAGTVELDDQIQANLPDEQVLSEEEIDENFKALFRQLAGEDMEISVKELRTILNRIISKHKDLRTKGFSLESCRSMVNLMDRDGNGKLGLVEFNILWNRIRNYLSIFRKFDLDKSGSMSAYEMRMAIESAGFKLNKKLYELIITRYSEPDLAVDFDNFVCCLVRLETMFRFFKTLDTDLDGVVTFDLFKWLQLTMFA
T3 sequence (P04632 1-268 partner): T1 sequence (P04632 1-268 partner)
In short: as §1

| SMILES | IC50 (Human Calpain 2/NS1) [µM] | IC50 (Human Calpain 9/NS1) [µM] | IC50 (Human Calpain 1/NS1) [µM] |
| --- | --- | --- | --- |
| Cn1cc(-c2ccccc2)c(C(=O)N[C@@H](Cc2ccccc2)C(=O)C(N)=O)n1 [Compound 241, (S)—N-(4-amino-3,4-dioxo-1-phenylbutan-2-yl)-1-methyl-4-phenyl-1H-pyrazole-3-carboxamide] | < 3 | < 3 | < 3 |
| Cc1noc(-c2ccccc2)c1C(=O)N[C@@H](Cc1ccccc1)C(=O)C(=O)NCc1ccc(OC(F)(F)F)cc1 [Compound 247, (S)—N-(3,4-dioxo-1-phenyl-4-((4-(trifluoromethoxy)benzyl)amino)butan-2-yl)-3-methyl-5-phenylisoxazole-4-carboxamide] | 3 to 10 | 3 to 10 | 3 to 10 |
| Cc1cc(C(=O)N[C@@H](Cc2ccccc2)C(=O)C(N)=O)nn1-c1nc2ccccc2o1 [Compound 256, (S)—N-(4-amino-3,4-dioxo-1-phenylbutan-2-yl)-1-(benzo[d]oxazol-2-yl)-5-methyl-1H-pyrazole-3-carboxamide] | > 10 | < 3 | > 10 |
| Cn1nnc(C(=O)N[C@@H](Cc2ccccc2)C(=O)C(N)=O)c1-c1ccccc1 [Compound 260, (S)—N-(4-amino-3,4-dioxo-1-phenylbutan-2-yl)-1-methyl-5-phenyl-1H-1,2,3-triazole-4-carboxamide] | < 3 | < 3 | < 3 |
| NC(=O)C(=O)[C@H](Cc1ccccc1)NC(=O)c1nn[nH]c1-c1ccccc1 [Compound 262, (S)—N-(4-amino-3,4-dioxo-1-phenylbutan-2-yl)-5-phenyl-1H-1,2,3-triazole-4-carboxamide] | 3 to 10 | < 3 | 3 to 10 |
| Cc1cc(C(=O)N[C@@H](Cc2ccccc2)C(=O)C(N)=O)nn1-c1nc2ccccc2[nH]1 [Compound 264, (S)—N-(4-amino-3,4-dioxo-1-phenylbutan-2-yl)-1-(1H-benzo[d]imidazol-2-yl)-5-methyl-1H-pyrazole-3-carboxamide] | 3 to 10 | > 10 | 3 to 10 |
| Cn1cnc(C(=O)N[C@@H](Cc2ccccc2)C(=O)C(N)=O)c1-c1ccccc1 [Compound 269, (S)—N-(4-amino-3,4-dioxo-1-phenylbutan-2-yl)-1-methyl-5-phenyl-1H-imidazole-4-carboxamide] | 3 to 10 | < 3 | 3 to 10 |
| NC(=O)C(=O)[C@H](Cc1ccccc1)NC(=O)c1ccsc1-c1ccccc1 [Compound 270, (S)—N-(4-amino-3,4-dioxo-1-phenylbutan-2-yl)-2-phenylthiophene-3-carboxamide] | < 3 | < 3 | < 3 |
| N#Cc1cc(C(=O)N[C@@H](Cc2ccccc2)C(=O)C(N)=O)n(-c2ccccc2)n1 [Compound 272, (S)—N-(4-amino-3,4-dioxo-1-phenylbutan-2-yl)-3-cyano-1-phenyl-1H-pyrazole-5-carboxamide] | 3 to 10 | 3 to 10 | > 10 |
| N#Cc1cc(C(=O)N[C@@H](Cc2ccccc2)C(=O)C(N)=O)nn1-c1ccccc1 [Compound 273, (S)—N-(4-amino-3,4-dioxo-1-phenylbutan-2-yl)-5-cyano-1-phenyl-1H-pyrazole-3-carboxamide] | < 3 | < 3 | > 10 |
| Cn1nc(Br)c(C(=O)NC(Cc2ccccc2)C(=O)C(N)=O)c1Cl (stereo not drawn) [Compound 274, N-(4-amino-3,4-dioxo-1-phenylbutan-2-yl)-3-bromo-5-chloro-1-methyl-1H-pyrazole-4-carboxamide] | < 3 | < 3 | < 3 |
| Cc1nc(-c2cccc(C(F)(F)F)n2)c(C(=O)NC(Cc2ccccc2)C(=O)C(N)=O)o1 (stereo not drawn) [Compound 287] | 3 to 10 | < 3 | < 3 |
| Cc1ncn(-c2ccccc2)c1C(=O)N[C@@H](Cc1ccccc1)C(=O)C(N)=O [Compound 290, (S)—N-(4-amino-3,4-dioxo-1-phenylbutan-2-yl)-4-methyl-1-phenyl-1H-imidazole-5-carboxamide] | < 3 | < 3 | < 3 |

Now from value to molecule:

| IC50 (Human Calpain 2/NS1) [µM] | IC50 (Human Calpain 9/NS1) [µM] | IC50 (Human Calpain 1/NS1) [µM] | SMILES |
| --- | --- | --- | --- |
| < 3 | < 3 | < 3 | NC(=O)C(=O)[C@H](Cc1ccccc1)NC(=O)c1c(F)cnn1-c1ccccc1 [Compound 258, (S)—N-(4-amino-3,4-dioxo-1-phenylbutan-2-yl)-4-fluoro-1-phenyl-1H-pyrazole-5-carboxamide] |
| < 3 | < 3 | < 3 | Cn1nnc(-c2ccccc2)c1C(=O)N[C@@H](Cc1ccccc1)C(=O)C(N)=O [Compound 261, (S)—N-(4-amino-3,4-dioxo-1-phenylbutan-2-yl)-1-methyl-4-phenyl-1H-1,2,3-triazole-5-carboxamide] |
| < 3 | < 3 | < 3 | NC(=O)C(=O)[C@H](Cc1ccccc1)NC(=O)c1cnnn1-c1ccccc1 [Compound 263, (S)—N-(4-amino-3,4-dioxo-1-phenylbutan-2-yl)-1-phenyl-1H-1,2,3-triazole-5-carboxamide] |
| < 3 | < 3 | < 3 | NC(=O)C(=O)C(Cc1ccccc1)NC(=O)c1c(Cl)cnn1-c1ccccc1 (stereo not drawn) [Compound 280, N-(4-amino-3,4-dioxo-1-phenylbutan-2-yl)-4-chloro-1-phenyl-1H-pyrazole-5-carboxamide] |
| < 3 | < 3 | < 3 | NC(=O)C(=O)C(Cc1ccccc1)NC(=O)c1ccnn1Cc1ccccc1 (stereo not drawn) [Compound 283, N-(4-amino-3,4-dioxo-1-phenylbutan-2-yl)-1-benzyl-1H-pyrazole-5-carboxamide] |
| > 10 | > 10 | > 10 | NC(=O)C(=O)C(Cc1ccccc1)NC(=O)c1ccn(Cc2ccccc2)n1 (stereo not drawn) [Compound 284, N-(4-amino-3,4-dioxo-1-phenylbutan-2-yl)-1-benzyl-1H-pyrazole-3-carboxamide] |
| < 3 | < 3 | < 3 | NC(=O)C(=O)[C@H](Cc1ccccc1)NC(=O)c1c(Cl)ncn1-c1ccccc1 [Compound 291, (S)—N-(4-amino-3,4-dioxo-1-phenylbutan-2-yl)-4-chloro-1-phenyl-1H-imidazole-5-carboxamide] |

Reference: patent US11339130B1 (Blade Therapeutics, Inc., priority 2016, dated 2022)
